The values that follow come from patent US20260083126A1, “ANTIMICROBIAL COMPOSITIONS” (AHV International B.V., priority 2022, published 2026).

Entries after “also recorded” stand apart in the source; their conditions may differ. Some results are limits rather than exact numbers.

In series [1] the test system is Staphylococcus epidermis ATCC 35984 biofilm. Description: MBIC assay (crystal violet). The format is cell-based, Staphylococcus epidermidis. Particulars: 48 h at 37° C., absorbance 540 nm. The protocol:
The exact weighed amount was noted and the volume of solvent to reach a 80 mM dilution calculated. Half of the volume was added first, by adding Tween 80 and let stand for 5 minutes. In a second step, the other half of the volume DMSO was added and resuspended to help the dilution process. The closed tube was inverted 5-10 times and then vortexed very thoroughly for at least 30 seconds. If after this procedure crystals were still visible, the tube was placed in a shaker at 37° C. at 150 rpm for at least 30 minutes (it is indicated if the dissolution period was longer than 2 h). […] In case of Bis(4-Chlorophenyl) thiosulfonate, a lower concentrated stock solution of 2 mM needed to be prepared. For that, the required amount of compound was weighed in and 2% v/v Tween80 and 2% v/v DMSO of the end volume of the stock solution was added to the substance. This mix was heated in a water bath set to 40° C. and occasionally shaken. When the whole amount of the substance reached dissolution, the volume was filled up with growth medium until the end volume. This 2 mM stock solution of Bis(4-Chlorophenyl) thiosulfonate was used in the MIC plate and diluted two-fold, resulting in a testing range of Bis(4-Chlorophenyl) thiosulfonate from 1 mM to 0.002 mM.
Frozen aliquots of Staphylococcus epidermis ATCC 35984 and Pseudomonas aeruginosa ATCC 27853 were used to inoculate a tryptic soy agar (TSA) plate and were incubated overnight at 37° C. After incubation 3-5 well-isolated colonies with the same morphology were selected from the TSA plate and resuspended in 2 ml 0.9% saline solution with 3-6 glass beads and vortexed. The optical density of the bacterial suspension was measured at 600 nm (OD600) with a spectrophotometer (Evolution™ 201/220 UV-Visible Spectrophotometer, Thermo Fisher Scientific) and diluted to an OD600 of 0.2. The MBIC assay was performed in a 96-microtiter plate. […] The solution was resuspended and transferred to a flat-bottom 96-well plate and the absorbance measured at 540 nm with the spectrophotometer. […]

The test system of the next series is HepG2 cell line. Description: MTT cytotoxicity test. The format is cell-based, human. The conditions noted are these: 24 h, 7.8 μM to 1 mM, emulsified with Tween-80/DMSO. As for the experimental part:
Scope. As standard tests cytotoxicity is measured on Caco-2 and HepG2 cell lines. Cytotoxicity of mentioned cell lines was determined by measuring the amount of converted MTT (3-(4,5-dimethylthiazol-2-yl)-2,5-diphenyltetrazolium bromide) by a mitochondrial dehydrogenase after exposure of various concentrations of the antimicrobial compounds. In living cells the dehydrogenase converts the soluble MTT into water insoluble purple formazan crystals that can not pass the cell membrane. The higher the metabolic activity of the cell, the more purple crystals are formed, the lower the cytotoxicity of the antimicrobial compound. HepG2 adherent cells were isolated from human liver and show epithelial morphology. Culture condition of the cells were followed based on the standard protocols. HepG2 cell line was cultured in 75-cm^2 culture flasks. Dulbecco's modified Eagle's minimum essential medium (DMEM)+Glutamax, supplemented with 10% (v/v) inactivated fetal calf serum (FCS) (Gibco), and penicillin (100 U/ml.)/streptomycin (100 μg/ml.) was utilized as medium for the growing cells. The cells were preserved in an incubator to provide them with the optimum moisture and temperature (humidified atmosphere of 95% air and 5% CO2 at 37° C. for 72 hours). The cells were grown on flat bottom 96-well plates to the appropriate density to run the experiments. The cells were exposed to increasing concentrations of emulsified test compound (8 concentration, ranging from 7.8 μM to 1 mM) in standard culture medium (Catalogue 31331028, ThemoFischer Scientific) for each cell line. It should be noted that all the experiments were conducted in FBS (Catalog A3840101, ThermoFischer Scientific) and antibiotic free medium. The concentration of Tween-80 and DMSO that is present in the assay to emulsify the antimicrobial compound was in the range from 0,007% to 1%. The cells were incubated for 24 h with emulsified test compound and the assay was performed based on the standard protocol. By the end of the experiment the medium (cell supernatants) was removed and the lysis buffer (0.04 M hydrochloric acid, in propan-2-ol) was added to each well to solubilize the purple formazan crystals. As the final step, the absorbance was recorded by a multi-well reader at 595 nm. Control experiment with emulsifiers Tween 80 and DMSO but without antimicrobial compounds was performed in a same way on both cell lines. The results from all experiments were expressed as mean #standard error of the mean (SEM) conducted in triplicate (three wells/condition) of three independent experiments. Differences between results were statistically evaluated using One-way ANOVA with Bonferroni post-hoc test.

In another series the test system is Candida albicans Y01-19. Description: MBC assay (Minimal Bactericide Concentration). The format is cell-based. Particulars: for effect at concentrations of growth inhibition (MIC90), C. albicans: MBC compared to MIC90; for MBC Candida albicans: Y01-19, n = 3, no colonies on agar plate after 20 h. The protocol:
(§1) Hereafter, the stock solutions of the compounds were used in three repetitions in a minimal inhibitory concentration (MIC) assay at a 2-fold dilution range with various bacteria from the gram-positive and gram-negative group and a yeast, Candida albicans. The concentrations that show only less than 10% growth after 24 h were considered the MIC90-values, whereas the concentrations that show 50% growth after 24 h when compared to the bacterial growth control were considered the MIC50-values. Escherichia coli and Staphylococcus aureus were used as representatives for a gram-negative bacteria and gram-positive bacteria, respectively. Furthermore, the yeast C. albicans was also tested.
(§2) The Minimal Bactericide Concentration (MBC) of two compounds were determined, namely diisopropyl thiosulfonate and di-n-propyl thiosulfonate. […] This assay was performed per strain of E. coli, S. aureus, and C. albicans three independent times. Therefore, the standard deviation could also be calculated (Table 10).

For series [2], the system named is Staphylococcus aureus LUH 14616. Description: MBC assay (Minimal Bactericide Concentration). The format is cell-based. The conditions noted are these: for MBC Staphylococcus aureus: LUH 14616, n = 3, no colonies on agar plate after 20 h; for effect at concentrations of growth inhibition (MIC90), S. aureus: higher MBC values compared to MIC90 values. As for the experimental part:
as §1, §2

Series [3] deals with Escherichia coli ATCC 25922. Description: MBC assay (Minimal Bactericide Concentration). Particulars: for MBC Escherichia coli: ATCC 25922, n = 3, no colonies on agar plate after 20 h; for effect at concentrations of growth inhibition (MIC90), E. coli: MBC compared to MIC90. The series is classed as cell-based. As for the experimental part: as §1, §2
The mark [4] stands for this setting: listed as diisopropyl thiosulfonate Batch A.
Where [5] appears, read: listed as diisopropyl thiosulfonate Batch C.

As for `Clc1ccc(SSc2ccc(Cl)cc2)cc1` [Bis (4-chlorophenyl) disulfide, Bis(4-chlorophenyl) disulfide], the “S. epidermidis MBIC90” value in series [1] is given as above 4 mM. Further, in the series with HepG2 cell line, the “cytotoxic effect on HepG2 cells (MTT)” value was “cytotoxic effects”.
Regarding `O=S(=O)(Sc1ccc(Cl)cc1)c1ccc(Cl)cc1` [Bis (4-chlorophenyl) thiosulfonate, Bis(4-chlorophenyl) thiosulfonate], in the series with HepG2 cell line, the “cytotoxic effect on HepG2 cells (MTT)” value is “cytotoxic effects”.
Turning to `Fc1ccc(SSc2ccc(F)cc2)cc1` [Bis (4-fluorophenyl) disulfide, Bis(4-fluorophenyl) disulfide], the “cytotoxic effect on HepG2 cells (MTT)” value with HepG2 cell line is listed as “cytotoxic effects”.
In the case of `CC(C)SS(=O)(=O)C(C)C` [Di-isopropyl thiosulfonate], in the series on Candida albicans Y01-19, the “effect at concentrations of growth inhibition (MIC90), C. albicans” value is “bactericidal effect”. In addition, the “MBC Candida albicans” value against Candida albicans Y01-19 (setting [4]) was 75 µM; in the series on Candida albicans Y01-19 (setting [5]), 50 µM. For the same compound, the “MBC Staphylococcus aureus” value in series [2] (setting [4]) amounted to 1500 µM; in series [2] (setting [5]), 1833 µM. In series [2], the “effect at concentrations of growth inhibition (MIC90), S. aureus” value is “bacteriostatic effect”. Besides, in series [3], the “MBC Escherichia coli” value was 219 µM. For the same compound, in series [3], the “effect at concentrations of growth inhibition (MIC90), E. coli” value is “bactericidal effect”. Further, in the series on HepG2 cell line, the “cytotoxic effect on HepG2 cells (MTT)” value was “cytotoxic effects; also recorded: cytotoxicity is lowest”.
With `CCCSSCCC` [Di-n-propyl disulfide, reference compound], the “S. epidermidis MBIC90” value in series [1] is 4 mM.
In the case of `CCCSS(=O)(=O)CCC` [Di-n-propyl thiosulfonate, reference compound], in the series with Candida albicans Y01-19, the “effect at concentrations of growth inhibition (MIC90), C. albicans” value is “bactericidal effect” and the “MBC Candida albicans” value stood at 25 µM. In series [2], the “MBC Staphylococcus aureus” value was 1083 µM and the “effect at concentrations of growth inhibition (MIC90), S. aureus” value was “bacteriostatic effect”. For the same compound, in series [3], the “MBC Escherichia coli” value was found to be 208 µM and the “effect at concentrations of growth inhibition (MIC90), E. coli” value is listed as “bactericidal effect”. For the same compound, the “S. epidermidis MBIC90” value in series [1] turned out to be 2 mM.
